Data reported in US20240261294A1, “METHOD FOR TREATING IDH INHIBITOR-RESISTANT SUBJECTS” (Eli Lilly and Company, priority 2021, published 2024).
Positions count from the first letter of the chain named. pIC50: −log10 of the molar value. Like-named read-outs stand apart in the source and are kept apart here.

Columns and labels:
IDH2 R140Q + Q316E trans = biological target: T1, IDH2 R140Q + Q316E trans (Homo sapiens, UniProt P48735, Q316E/R140Q); experiment: Inhibition of 2-HG production in IDH2 mutant U-87 MG cells; format: cell-based
T1 construct: expressed in transfected cells; host or cells: U-87 MG
T1 sequence (P48735 40-452 R140Q): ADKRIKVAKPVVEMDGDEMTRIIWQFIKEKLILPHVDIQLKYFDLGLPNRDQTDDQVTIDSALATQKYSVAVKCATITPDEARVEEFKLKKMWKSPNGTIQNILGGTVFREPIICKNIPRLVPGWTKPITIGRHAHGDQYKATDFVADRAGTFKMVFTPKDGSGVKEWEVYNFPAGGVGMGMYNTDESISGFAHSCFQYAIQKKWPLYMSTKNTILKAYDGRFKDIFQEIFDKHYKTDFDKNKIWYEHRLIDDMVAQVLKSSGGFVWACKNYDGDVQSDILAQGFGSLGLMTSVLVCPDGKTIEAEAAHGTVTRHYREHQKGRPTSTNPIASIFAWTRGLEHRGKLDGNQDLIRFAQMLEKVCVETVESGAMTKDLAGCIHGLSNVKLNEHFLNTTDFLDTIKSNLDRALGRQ
T1 sequence (P48735 40-452 Q316E): T1 sequence (P48735 40-452 R140Q) with Q101R, Q277E

IDH2 R172K_G260A cis = biological target: T2, IDH2 R172K_G260A cis (Homo sapiens, UniProt P48735, G260A/R172K); experiment: as above; format: cell-based; conditions: 16 hours incubation, 50K cells/well, 100 μl media/well, read-out: Relative IC50 (nM) Mean, inhibition of 2-HG production
T2 construct: expressed in transfected cells; host or cells: U-87 MG
T2 sequence (P48735 40-452 R172K/G260A): T1 sequence (P48735 40-452 R140Q) with Q101R, R133K, G221A

pIC50 (IDH2 R140Q + Q316E trans; IDH2 R140Q + Q316E trans, 72 hours incubation, 12.5K cells/well, 150 μl media/well, read-out: IC50, inhibition of 2-HG production): 8.23 | IC50 (IDH2 R140Q + Q316E trans; IDH2 R140Q_Q316E trans, 16 hours incubation, 50K cells/well, 100 μl media/well, read-out: Relative IC50 (nM) Mean, inhibition of 2-HG production): 23 nM | IC50 (IDH2 R172K_G260A cis): 13 nM
Structure (SMILES): C=CC(=O)N1CCN([C@@H](CC2CC2)c2ccc([C@H](C)Nc3ncc4c(n3)N(CC)C(=O)OC4)cc2)CC1 [Compound A, 7-[[(1S)-1-[4-[(1S)-2-cyclopropyl-1-(4-prop-2-enoylpiperazin-1-yl)ethyl]phenyl]ethyl]amino]-1-ethyl-4H-pyrimido[4,5-d][1,3]oxazin-2-one]
